Data: the supplement of paper PMC10307832

Tests used:
Experiment in all cases: relative viability (nuclei count vs DMSO), 5 days (fraction); higher = more cells survive
Daporinad + Olaparib = compound: O=C(/C=C/c1cccnc1)NCCCCC1CCN(C(=O)c2ccccc2)CC1 [Daporinad] + O=C(c1cc(Cc2n[nH]c(=O)c3ccccc23)ccc1F)N1CCN(C(=O)C2CC2)CC1 [Olaparib] (partner 8 µM)
How it was run: (§1)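 Lung cancer cell lines, seeded in 1536-well plates, were treated the following day by pin tool with a single drug or with five library-drug doses (not always all listed) in √10 steps on top of a fixed anchor-drug dose. Cells were fixed and nuclei stained in one step after 5 days, and nuclei were counted. Relative viability is the nuclei count for treated wells divided by that for vehicle wells, reported as medians of duplicate plates.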

Daporinad + Tozasertib = compound: O=C(/C=C/c1cccnc1)NCCCCC1CCN(C(=O)c2ccccc2)CC1 [Daporinad] + Cc1cc(Nc2cc(N3CCN(C)CC3)nc(Sc3ccc(NC(=O)C4CC4)cc3)n2)n[nH]1 [Tozasertib] (partner 0.1 µM)
How it was run: as §1

R406 + Pictilisib = compound: COc1cc(Nc2ncc(F)c(Nc3ccc4c(n3)NC(=O)C(C)(C)O4)n2)cc(OC)c1OC [R406] + CS(=O)(=O)N1CCN(Cc2cc3nc(-c4cccc5[nH]ncc45)nc(N4CCOCC4)c3s2)CC1 [Pictilisib] (partner 1 µM)
How it was run: as §1

R406 + Foretinib = compound: COc1cc(Nc2ncc(F)c(Nc3ccc4c(n3)NC(=O)C(C)(C)O4)n2)cc(OC)c1OC [R406] + COc1cc2c(Oc3ccc(NC(=O)C4(C(=O)Nc5ccc(F)cc5)CC4)cc3F)ccnc2cc1OCCCN1CCOCC1 [Foretinib] (partner 0.25 µM)
How it was run: as §1

Cell Line | relative viability (Daporinad + Olaparib; first compound 0.0005 µM) | relative viability (Daporinad + Olaparib; first compound 0.001581 µM) | relative viability (Daporinad + Olaparib; first compound 0.005 µM) | relative viability (Daporinad + Olaparib; first compound 0.01581 µM) | relative viability (Daporinad + Tozasertib; first compound 0.0005 µM) | relative viability (Daporinad + Tozasertib; first compound 0.001581 µM) | relative viability (Daporinad + Tozasertib; first compound 0.005 µM) | relative viability (Daporinad + Tozasertib; first compound 0.01581 µM) | relative viability (R406 + Pictilisib; first compound 0.08 µM) | relative viability (R406 + Pictilisib; first compound 0.253 µM) | relative viability (R406 + Pictilisib; first compound 0.8 µM) | relative viability (R406 + Pictilisib; first compound 2.53 µM) | relative viability (R406 + Pictilisib; first compound 8 µM) | relative viability (R406 + Foretinib; first compound 0.08 µM) | relative viability (R406 + Foretinib; first compound 0.253 µM) | relative viability (R406 + Foretinib; first compound 0.8 µM) | relative viability (R406 + Foretinib; first compound 2.53 µM) | relative viability (R406 + Foretinib; first compound 8 µM)
NCI-H1755 | 0.838 | 0.891 | 0.84 | 0.843 | 0.449 | 0.544 | 0.533 | 0.638 | 0.469 | 0.415 | 0.496 | 0.221 | 0.195 | 0.923 | 0.946 | 0.894 | 0.677 | 0.598
NCI-H1793 | 0.829 | 0.952 | 0.81 | 0.835 | 0.327 | 0.326 | 0.34 | 0.553 | 0.367 | 0.354 | 0.492 | 0.168 | 0.23 | 0.582 | 0.641 | 0.809 | 0.464 | 0.139
NCI-H1915 | 0.265 | 0.247 | 0.193 | 0.184 | 0.476 | 0.401 | 0.485 | 0.494 | 0.942 | 1.03 | 0.972 | 0.364 | 0.74 | 0.983 | 1.16 | 1.11 |  | 0.989
NCI-H1944 | 0.407 | 0.393 | 0.42 | 0.386 | 0.273 | 0.252 | 0.261 | 0.286 | 0.316 | 0.344 | 0.348 | 0.265 | 0.279 | 0.867 | 0.93 | 0.966 | 0.756 | 0.682
NCI-H1975 | 0.818 | 0.764 | 0.728 | 0.611 | 0.789 | 0.742 | 0.661 | 0.692 | 0.29 | 0.297 | 0.319 | 0.162 | 0.142 | 0.9 | 1.05 | 0.986 | 0.492 | 0.227
NCI-H1993 | 0.899 | 1.02 | 0.948 | 1.05 | 0.62 | 0.576 | 0.633 | 0.656 | 0.769 | 0.814 | 0.862 | 0.604 | 0.928 | 0.72 | 0.756 | 0.846 | 0.642 | 0.577
NCI-H2009 | 0.596 | 0.58 | 0.268 | 0.219 | 0.76 | 0.706 | 0.724 | 0.555 | 0.793 | 0.76 | 0.892 | 0.289 | 0.192 | 1.19 | 1.35 | 1.17 | 1.27 | 0.368
NCI-H2023 | 0.51 | 0.497 | 0.414 | 0.277 | 0.438 | 0.334 | 0.503 | 0.371 | 0.239 | 0.243 | 0.257 | 0.0848 | 0.12 | 0.905 | 0.703 | 0.768 | 0.896 | 0.368
NCI-H2085 | 0.673 |  | 0.629 | 0.629 | 0.805 | 0.846 | 0.977 | 0.831 | 0.413 | 0.505 | 0.459 | 0.482 | 0.37 | 0.847 | 1.08 | 0.973 | 0.912 | 0.289
NCI-H2087 | 0.69 | 0.575 | 0.205 | 0.236 | 0.262 | 0.229 | 0.339 | 0.221 | 0.876 | 1.07 | 0.92 | 0.352 | 0.717 | 1.2 | 1.05 | 1.04 |  | 0.609
NCI-H2126 | 0.945 | 0.953 | 0.883 | 0.863 | 0.919 | 0.888 | 0.875 | 0.93 | 0.508 | 0.502 | 0.49 | 0.437 | 0.493 | 1.16 | 0.824 | 1.26 | 1.04 | 1
NCI-H2170 | 0.56 | 0.57 | 0.609 | 0.337 | 0.694 | 0.742 | 0.668 | 0.849 | 0.307 | 0.269 | 0.302 | 0.194 | 0.24 | 0.964 | 1.11 | 1 | 0.916 | 0.814
NCI-H2228 | 0.459 | 0.715 | 0.708 | 0.584 | 0.264 | 0.201 | 0.322 | 0.294 | 0.587 | 0.222 | 0.532 | 0.169 | 0.187 | 0.798 | 1.01 | 0.972 | 0.567 | 0.337
NCI-H2347 | 0.543 | 0.604 | 0.571 | 0.416 | 0.597 | 0.636 | 0.504 | 0.596 | 0.53 | 0.952 | 0.605 | 0.624 | 0.28 | 1.11 | 1.09 | 1.29 | 0.61 | 0.348
NCI-H2405 | 0.848 | 0.841 | 0.639 | 0.407 | 0.82 | 0.783 | 0.954 | 0.888 | 0.514 | 0.475 | 0.396 | 0.265 | 0.175 | 0.961 | 1.15 | 1.11 | 0.934 | 0.775
NCI-H3122 | 0.564 | 0.565 | 0.501 | 0.421 | 0.376 | 0.403 | 0.421 | 0.405 | 0.581 | 0.59 | 0.668 | 0.576 | 0.604 | 0.962 | 0.959 | 0.931 |  | 0.887
PC-3 [JPC-3] | 1.18 | 1.08 | 1 | 1.09 | 0.864 | 0.896 | 0.938 | 0.952 | 0.764 | 0.762 | 0.814 | 0.467 | 0.421 | 0.981 | 1.08 | 1.09 | 0.827 | 0.372
PC-14 | 0.242 | 0.194 | 0.168 | 0.087 | 0.688 | 0.633 | 0.606 | 0.709 | 0.669 | 0.835 | 0.703 | 0.319 | 0.381 | 0.919 | 0.941 | 0.97 | 0.875 | 0.635
